A short description of the assay: Tests carried out by the Applicant on masking or reducing unpleasant flavor impressions. As to conditions: for effect for masking or reducing the unpleasant flavor impression of an unpleasant-tasting substance: among the alkamides tested by the Applicant.

In the case of `CCCCC/C=C/C=C/C(=O)NCC(C)C` [Formula (1), 2E,4E-decadienoic acid-N-isobutylamide], the “effect for masking or reducing the unpleasant flavor impression of an unpleasant-tasting substance” value was “best effect”. In addition, the “effect to change, mask or reduce the unpleasant flavor impression” value (very low concentrations which are not sufficient to intensify salivation) is “very strong effect”.
For the compound `CCCCC/C=C\C=C\C(=O)NCC(C)C` [Formula (2), 2E,4Z-decadienoic acid-N-isobutylamide], the “effect for masking or reducing the unpleasant flavor impression of an unpleasant-tasting substance” value is given as “best effect”.
For `CCCCC/C=C\C=C/C(=O)NCC(C)C` [Formula (3), 2Z,4Z-decadienoic acid-N-isobutylamide], the “effect for masking or reducing the unpleasant flavor impression of an unpleasant-tasting substance” value was “best effect”.
In the case of `CCCCC/C=C/C=C\C(=O)NCC(C)C` [Formula (4), 2Z,4E-decadienoic acid-N-isobutylamide], the “effect for masking or reducing the unpleasant flavor impression of an unpleasant-tasting substance” value was “best effect”.
